We go through three compounds from patent US8912156B1, “Markers for and methods of targeting tumor stem cells” (Whitehead Institute for Biomedical Research, priority 2011, dated 2014).

The subject of data set [1] is HMLER cells. The data set can be described thus: Mammosphere (tumorsphere) formation of HMLER cells after short-term drug treatment. The class given is cell-based, human. Particulars: 24 hours treatment, 24 hours recovery, 7 days drug-free sphere culture. The protocol: (§1) Nor was any difference observed between BPLER and HMLER cells with paclitaxel or 5-fluorouracil (FIG. 3B). As noted above, tumorsphere formation capacity correlates with TSC subpopulations. With the tumorsphere assay employed, a single tumor cell can form a multicellular tumorsphere in suspension. To assess the short term effect of drug treatment, drugs were removed after treating the tumor cells in routine 2D culture conditions for 24 hours, and after a recovery period of 24 hours tumorsphere cultures were suspended in a medium free of drugs for 7 days.
(§2) BPLER and HMLER cells were maintained in WIT-T (Stemgent) and MGEM (Lonza) medium at 37° C. and 5% CO2. The remaining cell lines were grown in DMEM/F12 (Gibco) with 10% fetal bovine serum (FBS) at 37° C. and 5% CO2. The BPLER cells were grown on Primaria plasticware (BD Biosciences). The remaining cells were grown on standard plasticware (Falcon). The mammospheres were maintained in a 1:1 ratio of WIT-T/MEGM (less bovine pituitary extract) using 2% B27 (Invitrogen), 20 ng/ml EGF, 20 ng/ml bFGF (BD Biosciences), 4 ug/ml heparin (Sigma), and 0.5% methyl cellulose. Sphere formation experiments were carried out by plating 15,000-20,000 cells/well into 6-well ultra-low attachment plates (Corning). The cells were fed at days 1, 3, and 5, and spheres were counted at day 7.
Drug treatment experiments were performed in a 1:1 ratio of WIT-T/MEGM media. […] To evaluate the drug effect on 2D proliferation of BPLER and HMLER cells, the cells were plated at 125,000 cells/well in 6-well Primaria plates. Drug-containing media was added to each well after 24 hours. The cells were treated continuously for 4 days with drug-containing media changes each day. Cell number was counted with a hemocytometer after 4 days of treatment. To evaluate the drug effect on BPLER and HMLER cell mammosphere formation, cells were plated at 50% confluence in Primaria flasks. After 24 hours, drug-containing media was added to each flask. After 24 hours of treatment with the drug-containing media, the cells recovered for 24 hours in a drug-free media. […]

Data set [2] concerns HMLER cells. Put plainly: Drug effect on 2D proliferation of HMLER cells. As to conditions: only when the drugs were present. In kind it is cell-based, human. The protocol:
as §2
(§3) Drug treatment experiments were performed in a 1:1 ratio of WIT-T/MEGM media. […] To evaluate the drug effect on 2D proliferation of BPLER and HMLER cells, the cells were plated at 125,000 cells/well in 6-well Primaria plates. Drug-containing media was added to each well after 24 hours. The cells were treated continuously for 4 days with drug-containing media changes each day. Cell number was counted with a hemocytometer after 4 days of treatment. To evaluate the drug effect on BPLER and HMLER cell mammosphere formation, cells were plated at 50% confluence in Primaria flasks. […]

The subject of data set [3] is BPLER cells. In kind it is cell-based, human. As to conditions: only when the drugs were present. The protocol:
as §2, §3

Data set [4] concerns BPLER cells. The data set can be described thus: Mammosphere (tumorsphere) formation of BPLER cells after short-term drug treatment. As to conditions: for BPLER cell capacity to form mammospheres (tumorsphere formation): 24 hours treatment, 24 hours recovery, 7 days drug-free sphere culture; for difference in response between BPLER and HMLER cells: BPLER vs HMLER. The class given is cell-based, human. Here is the method:
as §1, §2
Drug treatment experiments were performed in a 1:1 ratio of WIT-T/MEGM media. […] To evaluate the drug effect on 2D proliferation of BPLER and HMLER cells, the cells were plated at 125,000 cells/well in 6-well Primaria plates. Drug-containing media was added to each well after 24 hours. The cells were treated continuously for 4 days with drug-containing media changes each day. Cell number was counted with a hemocytometer after 4 days of treatment. To evaluate the drug effect on BPLER and HMLER cell mammosphere formation, cells were plated at 50% confluence in Primaria flasks. After 24 hours, drug-containing media was added to each flask. After 24 hours of treatment with the drug-containing media, the cells recovered for 24 hours in a drug-free media. Cells were then plated for the mammosphere protocol as described previously.

For data set [5], the system named is other Class I and Class II HDACs. As to conditions: TSA treatment of breast tumor cells; cited from earlier work.

For the compound `O=c1[nH]cc(F)c(=O)[nH]1` [5-fluorouracil], in the data set with HMLER cells [1], the “HMLER cell capacity to form mammospheres (tumorsphere formation)” value (shortened to “HMLER cell capacity to form mammospheres”) is “not inhibited”. For the same compound, the “cytotoxic effect on HMLER cells” value in the data set on HMLER cells [2] is on record as “cytotoxic effect”. Further, the “cytotoxic effect on BPLER cells” value in the data set on BPLER cells [3] is “cytotoxic effect”. Moreover, in the data set with BPLER cells [4], the “BPLER cell capacity to form mammospheres (tumorsphere formation)” value (from here on “BPLER cell capacity to form mammospheres”) is “not inhibited”; the “difference in response between BPLER and HMLER cells” value is “no difference”.
Regarding `CC(/C=C/C(=O)NO)=C\[C@@H](C)C(=O)c1ccc(N(C)C)cc1` [TSA, trichostatin A], the “HMLER cell capacity to form mammospheres” value in the data set on HMLER cells [1] is on record as “did not affect”. The “changes in expression of other Class I and Class II HDACs” value in data set [5] is given as “less than 2 fold”. Moreover, in the data set with BPLER cells [4], the “BPLER cell capacity to form mammospheres” value is reported as “significantly decreased”.
Take `CC(=O)O[C@H]1C(=O)[C@@]2(C)[C@H]([C@H](OC(=O)c3ccccc3)[C@]3(O)C[C@H](OC(=O)[C@H](O)[C@@H](NC(=O)c4ccccc4)c4ccccc4)C(C)=C1C3(C)C)[C@]1(OC(C)=O)CO[C@@H]1C[C@@H]2O` [paclitaxel]: the “HMLER cell capacity to form mammospheres” value with HMLER cells [1] is given as “not inhibited”. Besides, the “cytotoxic effect on HMLER cells” value in the data set on HMLER cells [2] was “cytotoxic effect”. Also, the “cytotoxic effect on BPLER cells” value in the data set on BPLER cells [3] is on record as “cytotoxic effect”. Besides, in the data set with BPLER cells [4], the “BPLER cell capacity to form mammospheres” value was “not inhibited”; the “difference in response between BPLER and HMLER cells” value was “no difference”.
